Where “and” joins values, the source holds several entries; their conditions need not be identical. Equal entries are not always repeated. Entries after “also recorded” stand apart in the source; their conditions may differ. Where two headings read alike, the source gives them in different places. Some results are limits rather than exact numbers.

Consider five compounds from paper PMC6270836, “Carapanolides J–L from the Seeds of Carapa guianensis (Andiroba) and Their Effects on LPS-Activated NO Production” (Molecules, 2014).

Data set [1] deals with NO production in LPS-stimulated RAW264.7 cells. Kind of data set: Inhibitory assay of NO production in LPS-stimulated RAW264.7 cells. It counts as cell-based, mouse. Conditions: for Produced NO (%): LPS 5 μg/mL, DMSO control = 100%, mean ± S.E., n=3; for IC50: Mus musculus, read-out: IC50 (μM), produced NO. As to the method:
(§1) Physiological nitric oxide (NO) is involved in blood pressure regulation and blood flow distribution, whereas its overexpression may induce tissue injury, multiple organ dysfunction, and death, as well as systemic inflammatory responses in sepsis, such as hypotension, cardiodepression, and vascular hyporeactivity. In the present study, four limonoids and L-NMMA, an inducible nitric oxide synthase (iNOS) inhibitor, were evaluated for their inhibitory effects on NO production in LPS-stimulated RAW264.7 cells (Table 3). To determine safe concentrations, the cytotoxicities of these limonoids against RAW 264.7 were assessed by the MTT assay.
An inhibitory assay of nitric oxide production was performed according to a method reported previously with slight modifications. Briefly, RAW264.7 cells (5 × 10^4 cells in 100 μL) were seeded onto 96-well microplates, and incubated for 24h. D-MEM (100 μL) containing test samples (final concentration of 100, 30, 10, or 3 μM) dissolved in DMSO (final concentration 0.2%) and LPS (final concentration of 5 μg/mL) were added. […] After being incubated for 30 min, the absorbance of each well was read at 570 nm using a microplate reader. The optical density of vehicle control cells was assumed to be 100%.

A further data set deals with RAW264.7 cells. Kind of data set: RAW264.7 cell proliferation / cytotoxicity by MTT assay. Conditions: 3–100 μM, MTT assay. As to the method: as §1
(§2) RAW264.7 cell proliferation was examined according to a method reported previously with some modifications. Briefly, RAW264.7 cells (5 × 10^4 cells in 100 μL) were seeded onto 96-well microplates, and incubated for 24 h. D-MEM (100 μL) containing test samples (final concentration of 100, 30, 10, or 3 μM) dissolved in DMSO (final concentration 0.2%) was added. […] After 3 h of incubation, 20% sodium dodecyl sulfate (SDS) in 0.1 M HCl was added to dissolve the formazan produced by the cells. The absorbance of each well was read at 570 nm using a microplate reader. The optical density of vehicle control cells was assumed to be 100%.
For orientation: Formazan colour is commonly taken as a measure of viable cells.

Experiment in data set [2]: as above
Conditions: mouse. As to the method: as §1, §2

Where [3] appears, read: LPS-stimulated RAW264.7 cells, 24 h.

In general, IC50 refers to the concentration needed to halve the response being measured. What is called viability is a read-out of living cells in per cent, often relative to untreated cells. On to `CC1(C)C(=O)C=CC2(C)C1CC(=O)C1(C)C2C(O)CC2(C)C(c3ccoc3)OC(=O)C3OC321` (stereo not drawn) [Compound 1, 11α-hydroxy-7-deacetoxy-7-oxogedunin], for which, in data set [1] (3 μM, 24 h), the “Produced NO (%)” value stood at 92.1 ± 1.5%. The “Produced NO (%)” value in data set [1] (10 μM, 24 h) is 83.4% and 83.4 ± 3.1%. Also, the “Produced NO (%)” value in data set [1] (30 μM, 24 h) was 61.8% and 61.8 ± 1.8%. Moreover, the “Produced NO (%)” value in data set [1] (100 μM, 24 h) was 16.8% and 16.8 ± 0.0%. The 50% inhibitory concentration (IC50) in data set [1] (setting [3]) was found to be 37.4 µM. In addition, the “Cytotoxicity against RAW 264.7 (in words)” value (“Cytotoxicity” for short) in the data set on RAW264.7 cells is given as “non-toxicities; also recorded: no cytotoxicity”. Besides, in data set [2] (RAW264.7 cells), the IC50 at 24 h is greater than 100 µM; the viability at 24 h, 3 µM was determined as 102.4 ± 0.8%; the viability at 24 h, 10 µM stood at 101 ± 1.7%; the viability at 24 h, 30 µM came to 102.8 ± 0.6%. The viability at 24 h, 100 µM in data set [2] (RAW264.7 cells) was 103 ± 1.8%.

Turning to `C/C=C(\C)C(=O)OC1C2(C)CC3(O)C(C)(C4CCC5(C)C(=C4C(OC(=O)C(C)CC)C13O)C(OC(C)=O)C(=O)OC5c1ccoc1)C2CC(=O)OC` (centres unmarked) [Compound 2, carapanolide K], the “Produced NO (%)” value in data set [1] (3 μM, 24 h) is 78.6 ± 1.9%. For the same compound, in data set [1] (10 μM, 24 h), the “Produced NO (%)” value stood at 58.3 ± 2.8%. In addition, the “Produced NO (%)” value in data set [1] (30 μM, 24 h) amounted to 25.8 ± 7.0%. Besides, the “Produced NO (%)” value in data set [1] (100 μM, 24 h) is recorded as 7.1 ± 1.2%. In data set [1] (setting [3]), the IC50 was 12 µM. Moreover, in data set [2] (RAW264.7 cells), the IC50 at 24 h was 15.2 µM; the viability at 24 h, 3 µM came out at 81.4 ± 0.8%; the viability at 24 h, 10 µM was 65.6 ± 0.2%; the viability at 24 h, 30 µM stood at 33.6 ± 6.3%. In addition, in data set [2] (RAW264.7 cells), the viability at 24 h, 100 µM was 0.4 ± 0.4%.

`CCC(=O)OC1C2(O)C(OC(C)=O)C3(C)CC24OC2(C)OC15C1CC(=O)OC(c6ccoc6)C1(C)CCC5(O2)C41COC(=O)CC31` (centres unmarked) [Compound 3, carapanolide L]: the “Produced NO (%)” value in data set [1] (3 μM, 24 h) came to 95.6 ± 2.5%. The “Produced NO (%)” value in data set [1] (10 μM, 24 h) came out at 95.4 ± 1.2%. Further, the “Produced NO (%)” value in data set [1] (30 μM, 24 h) turned out to be 95.4 ± 2.9%. In data set [1] (100 μM, 24 h), the “Produced NO (%)” value came out at 78.4 ± 2.3%. For the same compound, the IC50 in data set [1] (RAW264.7, 24 h) was greater than 100 µM. For the same compound, the “Cytotoxicity” value in the data set with RAW264.7 cells is recorded as “non-toxicities”. Moreover, in data set [2] (RAW264.7 cells), the half-inhibitory concentration (IC50) at 24 h was greater than 100 µM; the viability at 24 h, 3 µM came out at 97.6 ± 0.6%; the viability at 24 h, 10 µM was 97.3 ± 1.3%; the viability at 24 h, 30 µM came out at 100.5 ± 0.4%. The viability at 24 h, 100 µM in data set [2] (RAW264.7 cells) was 94.4 ± 1%.

For the compound `[H]/N=C(/NC)NCCC[C@H](N)C(=O)O` [L-NMMA, reference compound], in data set [1] (3 μM, 24 h), the “Produced NO (%)” value was 93.0 ± 3.3%. Moreover, in data set [1] (10 μM, 24 h), the “Produced NO (%)” value was 79.3% and 79.3 ± 0.8%. The “Produced NO (%)” value in data set [1] (30 μM, 24 h) is 58.2% and 58.2 ± 2.4%. In data set [1] (100 μM, 24 h), the “Produced NO (%)” value is 39.9% and 39.9 ± 1.7%. The 50% inhibitory concentration (IC50) in data set [1] (setting [3]) stood at 53.7 µM. Also, in data set [2] (RAW264.7 cells), the IC50 at 24 h was greater than 100 µM; the viability at 24 h, 3 µM was determined as 103.5 ± 0.5%; the viability at 24 h, 10 µM worked out at 102 ± 1.5%; the viability at 24 h, 30 µM came to 94.1 ± 1.4%. Besides, in data set [2] (RAW264.7 cells), the viability at 24 h, 100 µM was determined as 96.5 ± 2.5%.

As to `CC(=O)O[C@@H]1C[C@H]2C(C)(C)C(=O)C=C[C@]2(C)[C@H]2CC[C@@]3(C)[C@H](c4ccoc4)C(=O)[C@H]4O[C@]43[C@@]21C` [Compound 4, epoxyazadiradione], in data set [1] (3 μM, 24 h), the “Produced NO (%)” value is 74.0% and 74.0 ± 5.0%. Moreover, in data set [1] (10 μM, 24 h), the “Produced NO (%)” value is 30.0% and 30.0 ± 2.3%. Besides, the “Produced NO (%)” value in data set [1] (30 μM, 24 h) is on record as 7.5 ± 1.0%. Further, the “Produced NO (%)” value in data set [1] (100 μM, 24 h) is recorded as 3.9 ± 1.8%. Further, the IC50 in data set [1] (setting [3]) was 5.9 µM. In addition, in the data set on RAW264.7 cells, the “Cytotoxicity” value is listed as “moderate cytotoxicities”. In addition, in data set [2], the IC50 at 24 h stood at 21.3 µM; the viability at 24 h, 3 µM is 93.6 ± 1.4%; the viability at 24 h, 10 µM worked out at 99.7 ± 0.8%; the viability at 24 h, 30 µM turned out to be 6.8 ± 0.3%. Moreover, the viability at 24 h, 100 µM in data set [2] stood at 3.3 ± 0.3%.
